According to PubChem BioAssay (NCI):
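Results reflect a 48-hour exposure of cells in 96-well plates to compound at five concentrations. Definition used: TGI = concentration required for complete inhibition of growth.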 Where a SMILES comes first, the peptide text is derived from it. The star is where a group is joined. Boc = CC(C)(C)OC(=O)*; OSu = O=C1CCC(=O)N1O*

Key:
Experiment in all cases: inhibition of tumour cell growth, NCI panel, 48 h
SF-539 CNS = system: SF-539 CNS
HT29 colon = system: HT29 colon
HCT-15 colon = system: HCT-15 colon
U251 CNS = system: U251 CNS
MOLT-4 leukemia = system: MOLT-4 leukemia
EKVX NSCLC = system: EKVX NSCLC
SK-MEL-2 melanoma = system: SK-MEL-2 melanoma
SK-MEL-5 melanoma = system: SK-MEL-5 melanoma
UO-31 renal = system: UO-31 renal
HL-60(TB) leukemia = system: HL-60(TB) leukemia
LOX IMVI melanoma = system: LOX IMVI melanoma

| SMILES | TGI (SF-539 CNS) | TGI (HT29 colon) | TGI (HCT-15 colon) | TGI (U251 CNS) | TGI (MOLT-4 leukemia) | TGI (EKVX NSCLC) | TGI (SK-MEL-2 melanoma) | TGI (SK-MEL-5 melanoma) | TGI (UO-31 renal) | TGI (HL-60(TB) leukemia) | TGI (LOX IMVI melanoma) |
| --- | --- | --- | --- | --- | --- | --- | --- | --- | --- | --- | --- |
| c1ccc([P+](CCNCCNCC[P+](c2ccccc2)(c2ccccc2)c2ccccc2)(c2ccccc2)c2ccccc2)cc1 | > 100 µM | > 100 µM | > 100 µM | > 100 µM | > 100 µM | > 100 µM | > 100 µM | > 100 µM | > 100 µM | – | – |
| Cc1ccc(-c2cc(N)n(-c3nc4c([nH]3)c(=O)n(C)c(=O)n4C)n2)cc1 | 16 µM | > 100 µM | 18.6 µM | > 100 µM | > 100 µM | 21.6 µM | 30.8 µM | 17 µM | 73.1 µM | > 100 µM | – |
| O=C1CC2(C[C@@H]3CCCCCCCCC[C@@H](C3)C2)N1 (stereo not given in full) | 30.4 µM | 26.9 µM | 34 µM | 30.3 µM | 37.4 µM | 28.2 µM | 37.7 µM | 30.6 µM | 27.8 µM | 38.8 µM | – |
| N#CCCN(c1ccc(C=Nc2cccc([N+](=O)[O-])c2)cc1)S(=O)(=O)c1ccccc1 | > 100 µM | > 100 µM | – | – | > 100 µM | > 100 µM | > 100 µM | – | > 100 µM | > 100 µM | – |
| COc1ccc2nc(-c3ccc(OCc4ccccc4)cc3)ccc2c1 | > 100 µM | > 100 µM | – | – | > 100 µM | > 100 µM | – | > 100 µM | > 100 µM | > 100 µM | > 100 µM |
| Cc1sc2nc3n(c(=O)c2c1C)N=CN(c1ccccc1)C3 | – | > 100 µM | > 100 µM | > 100 µM | > 100 µM | > 100 µM | > 100 µM | > 100 µM | > 100 µM | – | > 100 µM |
| CCN(CC)CCOC(c1cc(OC)ccc1OC)c1ccc2n1-c1ccccc1OC2 (stereo not given) | – | 13.9 µM | 23.6 µM | 28.1 µM | – | 33.1 µM | 26 µM | 22.2 µM | 23 µM | 30.4 µM | 23.6 µM |
| CCOC(=O)c1sc2nc(SC)nc3c2c1N=CN3c1ccc(Br)cc1 | – | > 100 µM | > 100 µM | > 100 µM | > 100 µM | > 100 µM | > 100 µM | > 100 µM | > 100 µM | > 100 µM | > 100 µM |
| COc1ccc2c(c1)c1c(n2CCN2CCOCC2)-c2ccccc2CC1 | 71.3 µM | > 100 µM | > 100 µM | > 100 µM | 48 µM | – | 82.5 µM | 46.3 µM | > 100 µM | – | – |
| CC1C(c2cc(C(C)(C)C)c(O)c(C(C)(C)C)c2)c2cc3c(cc2OC1N1CCOCC1)OCO3 (stereo not given) | 43.7 µM | > 100 µM | – | – | > 100 µM | > 100 µM | 67.3 µM | 47.3 µM | 29.8 µM | – | 44.7 µM |
| Cc1ccc(S(=O)(=O)N2CCN3C(=O)c4ccccc4C32c2ccc(F)cc2)cc1 (stereo not given) | – | > 100 µM | > 100 µM | > 100 µM | 65.9 µM | > 100 µM | > 100 µM | 35.2 µM | > 100 µM | – | – |
| Cc1cc2c(c(C(=O)NCCC(=O)O)c1)Oc1c(cc(C)cc1C(=O)NCCC(=O)O)S2 | > 100 µM | > 100 µM | > 100 µM | > 100 µM | > 100 µM | > 100 µM | > 100 µM | – | – | – | > 100 µM |
| Cc1ccc2c(c1C)CC1(Cc3c(ccc4c3CCC4)C1=O)C2=O (stereo not given) | > 100 µM | > 100 µM | > 100 µM | > 100 µM | > 100 µM | > 100 µM | > 100 µM | > 100 µM | > 100 µM | > 100 µM | – |
| O=C1CC2C=CC(O)C(C1)C2 (stereo not given) | > 100 µM | > 100 µM | > 100 µM | > 100 µM | > 100 µM | – | > 100 µM | – | > 100 µM | > 100 µM | > 100 µM |
| Cc1cc(-c2nc3ccccc3s2)ccc1NS(=O)(=O)O | > 100 µM | > 100 µM | > 100 µM | > 100 µM | > 100 µM | > 100 µM | – | > 100 µM | > 100 µM | – | > 51.2 µM |
| O=C1CC(O)c2c1csc2Br (stereo not given) | – | > 100 µM | 39 µM | 41 µM | 55.3 µM | > 100 µM | > 100 µM | > 100 µM | 53.3 µM | – | 36.1 µM |
| c1ccc(C[P+]2(c3ccccc3)c3ccccc3-c3ccccc32)cc1 | > 100 µM | – | > 100 µM | – | > 100 µM | > 100 µM | – | > 100 µM | > 100 µM | > 100 µM | > 100 µM |

| SMILES | TGI (SF-539 CNS) | TGI (HT29 colon) | TGI (HCT-15 colon) | TGI (U251 CNS) | TGI (MOLT-4 leukemia) | TGI (EKVX NSCLC) | TGI (SK-MEL-2 melanoma) | TGI (SK-MEL-5 melanoma) | TGI (UO-31 renal) | TGI (HL-60(TB) leukemia) | TGI (LOX IMVI melanoma) |
| --- | --- | --- | --- | --- | --- | --- | --- | --- | --- | --- | --- |
| COC1(C)CC2N(C(=O)c3ccccc3)N=C(c3ccccc3)CC2(C)O1 (stereo not given) | > 100 µM | > 100 µM | > 100 µM | – | > 100 µM | – | > 100 µM | > 100 µM | > 100 µM | > 100 µM | > 100 µM |
| COC(=O)c1cc(CC(C)C)c2c(c1)[nH]c1ccccc12 | > 100 µM | > 100 µM | > 100 µM | > 100 µM | > 100 µM | > 100 µM | > 100 µM | > 100 µM | > 100 µM | – | > 100 µM |
| CO[C@@H](C(=O)OC1C=CC2(CC1)C(=O)N(C)c1ccccc12)c1ccccc1 (stereo not given in full) | – | > 100 µM | > 100 µM | > 100 µM | > 100 µM | > 100 µM | > 100 µM | > 100 µM | > 100 µM | 94 µM | > 100 µM |
| COC(=O)C1=C(C(=O)OC)C2OC1C1C2C2(C)C(C)=C(C)C1(C)S2=O (stereo not given) | > 100 µM | > 49.9 µM | 20.5 µM | 26.8 µM | > 100 µM | 27.6 µM | 28 µM | 19.2 µM | 17.6 µM | – | > 100 µM |
| N#C/C(=C\NC(=S)Nc1ccc(S(=O)(=O)Nc2ccccn2)cc1)C(N)=O | > 100 µM | > 100 µM | > 100 µM | > 100 µM | > 100 µM | > 100 µM | > 100 µM | > 100 µM | > 100 µM | – | > 100 µM |
| Cc1cc(=O)cc2sc3c(C)cccc3nc1-2 | 73.3 µM | > 100 µM | > 100 µM | > 100 µM | 93.3 µM | – | 43.9 µM | 31.8 µM | > 100 µM | 46.8 µM | 39.2 µM |
| O=c1oc2ccccc2c(O)c1C(c1cc(OCc2ccccc2)cc(OCc2ccccc2)c1)c1c(O)c2ccccc2oc1=O | 36.7 µM | 33.5 µM | 11.8 µM | > 47.3 µM | 19.8 µM | 41.8 µM | 27.3 µM | 21.2 µM | 19.9 µM | – | 77.5 µM |
| O=c1c2c3ccccc3[nH]c2c2cccc3c2n1CCC3 | > 100 µM | > 100 µM | > 100 µM | > 100 µM | 86 µM | 95.1 µM | – | 79.2 µM | – | – | – |
| Cc1ccccc1C1OC1C(=O)c1ccccc1N (stereo not given) | > 100 µM | > 100 µM | > 100 µM | > 100 µM | > 100 µM | – | > 100 µM | > 100 µM | > 100 µM | – | > 100 µM |
| O=C1NC(c2ccc(O)cc2)C2CCC1C2 (stereo not given) | – | > 100 µM | – | > 100 µM | > 100 µM | > 100 µM | > 100 µM | > 100 µM | > 100 µM | > 100 µM | – |
| CCCN=C1CC(C)Nc2ccccc2N1 (stereo not given) | – | > 100 µM | > 100 µM | > 100 µM | > 100 µM | > 100 µM | > 100 µM | > 100 µM | > 100 µM | > 100 µM | – |
| CCN(CC)CCn1c2cc3c(cc2c(=O)c2cccnc21)OCCO3 | > 10 µM | > 10 µM | > 10 µM | > 10 µM | > 10 µM | > 10 µM | – | > 10 µM | – | > 10 µM | – |
| O=C1CC(C(O)CO)CC(=O)N1 (stereo not given) | > 100 µM | > 100 µM | > 100 µM | > 100 µM | – | – | – | > 100 µM | > 100 µM | > 100 µM | > 100 µM |
| CCOP(=O)(OCC)[C@H](O)c1ccsc1 | > 100 µM | > 100 µM | > 100 µM | > 100 µM | > 100 µM | > 100 µM | > 100 µM | > 100 µM | > 100 µM | – | > 100 µM |
| C[C@]12OC[C@H](c3ccccc3)N1C(=O)C1[C@H]2CC12SCCS2 (stereo not given in full) | > 100 µM | > 100 µM | > 100 µM | > 100 µM | > 100 µM | > 100 µM | > 100 µM | > 100 µM | > 100 µM | – | – |
| Cc1c(S(=O)(=O)c2ccccc2)c(N)n(Cc2ccccc2)c1C | > 100 µM | > 100 µM | > 100 µM | > 100 µM | > 100 µM | > 100 µM | > 100 µM | > 100 µM | > 100 µM | > 100 µM | – |
| CC(C)(C)OC(=O)NC(Cc1ccc(O)cc1)C(=O)NC(CCCCN)C(=O)NC(Cc1ccc(O)cc1)C(=O)NC(CCCCN)C(=O)ON1C(=O)CCC1=O (stereo not given) (Boc-YKYK-OSu; configuration not given here) | – | > 100 µM | > 100 µM | > 100 µM | > 100 µM | > 100 µM | > 100 µM | > 100 µM | > 100 µM | > 100 µM | – |
